What was measured:
[1] = molecular target: T1, Protein cereblon/SWI/SNF-related matrix-associated actin-dependent regulator of chromatin subfamily A member 2 (Homo sapiens, UniProt P51531+Q96SW2); assay: PROTAC activity at CRBN/SMARCA2 in human RKO cells assessed as degradation measured after 24 hrs by Western blot analysis; format: cell-based
[2] = molecular target: T2, Protein cereblon/SWI/SNF-related matrix-associated actin-dependent regulator of chromatin subfamily A member 4 (Homo sapiens) (UniProt P51532+Q96SW2); assay: PROTAC activity at CRBN/SMARCA4 in human RKO cells assessed as degradation measured after 24 hrs by Western blot analysis; format: cell-based
[3] = molecular target: T1, Protein cereblon/SWI/SNF-related matrix-associated actin-dependent regulator of chromatin subfamily A member 2; assay: PROTAC activity at CRBN/SMARCA2 in human RKO cells assessed as maximal degradation measured after 24 hrs by Western blot analysis relative to control; format: cell-based
[4] = molecular target: T2, Protein cereblon/SWI/SNF-related matrix-associated actin-dependent regulator of chromatin subfamily A member 4 (Homo sapiens); assay: PROTAC activity at CRBN/SMARCA4 in human RKO cells assessed as maximal degradation measured after 24 hrs by Western blot analysis relative to control; format: cell-based
[5] = molecular target: T3, von Hippel-Lindau disease tumor suppressor/SWI/SNF-related matrix-associated actin-dependent regulator of chromatin subfamily A member 2 (Homo sapiens, UniProt P51531+P40337); assay: PROTAC activity at VHL1/SMARCA2 in human genetically modified Hela cells assessed as degradation measured after 24 hrs incubation by Nano-Glo HiBiT Lytic Detection Assay; format: cell-based
[6] = molecular target: T3, von Hippel-Lindau disease tumor suppressor/SWI/SNF-related matrix-associated actin-dependent regulator of chromatin subfamily A member 2; assay: PROTAC activity at VHL1/SMARCA2 in human genetically modified Hela cells assessed as maximal degradation measured after 24 hrs incubation by Nano-Glo HiBiT Lytic Detection Assay relative to control; format: cell-based
Target sequence in this assay (P40337 whole entry, looked up): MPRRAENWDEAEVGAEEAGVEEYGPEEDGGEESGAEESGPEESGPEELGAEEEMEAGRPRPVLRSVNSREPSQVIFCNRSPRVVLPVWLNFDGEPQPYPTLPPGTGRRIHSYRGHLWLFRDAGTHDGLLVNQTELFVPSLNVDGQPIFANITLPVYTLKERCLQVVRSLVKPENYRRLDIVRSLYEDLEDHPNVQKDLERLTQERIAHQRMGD
Target sequence in this assay (P51531 whole entry, looked up): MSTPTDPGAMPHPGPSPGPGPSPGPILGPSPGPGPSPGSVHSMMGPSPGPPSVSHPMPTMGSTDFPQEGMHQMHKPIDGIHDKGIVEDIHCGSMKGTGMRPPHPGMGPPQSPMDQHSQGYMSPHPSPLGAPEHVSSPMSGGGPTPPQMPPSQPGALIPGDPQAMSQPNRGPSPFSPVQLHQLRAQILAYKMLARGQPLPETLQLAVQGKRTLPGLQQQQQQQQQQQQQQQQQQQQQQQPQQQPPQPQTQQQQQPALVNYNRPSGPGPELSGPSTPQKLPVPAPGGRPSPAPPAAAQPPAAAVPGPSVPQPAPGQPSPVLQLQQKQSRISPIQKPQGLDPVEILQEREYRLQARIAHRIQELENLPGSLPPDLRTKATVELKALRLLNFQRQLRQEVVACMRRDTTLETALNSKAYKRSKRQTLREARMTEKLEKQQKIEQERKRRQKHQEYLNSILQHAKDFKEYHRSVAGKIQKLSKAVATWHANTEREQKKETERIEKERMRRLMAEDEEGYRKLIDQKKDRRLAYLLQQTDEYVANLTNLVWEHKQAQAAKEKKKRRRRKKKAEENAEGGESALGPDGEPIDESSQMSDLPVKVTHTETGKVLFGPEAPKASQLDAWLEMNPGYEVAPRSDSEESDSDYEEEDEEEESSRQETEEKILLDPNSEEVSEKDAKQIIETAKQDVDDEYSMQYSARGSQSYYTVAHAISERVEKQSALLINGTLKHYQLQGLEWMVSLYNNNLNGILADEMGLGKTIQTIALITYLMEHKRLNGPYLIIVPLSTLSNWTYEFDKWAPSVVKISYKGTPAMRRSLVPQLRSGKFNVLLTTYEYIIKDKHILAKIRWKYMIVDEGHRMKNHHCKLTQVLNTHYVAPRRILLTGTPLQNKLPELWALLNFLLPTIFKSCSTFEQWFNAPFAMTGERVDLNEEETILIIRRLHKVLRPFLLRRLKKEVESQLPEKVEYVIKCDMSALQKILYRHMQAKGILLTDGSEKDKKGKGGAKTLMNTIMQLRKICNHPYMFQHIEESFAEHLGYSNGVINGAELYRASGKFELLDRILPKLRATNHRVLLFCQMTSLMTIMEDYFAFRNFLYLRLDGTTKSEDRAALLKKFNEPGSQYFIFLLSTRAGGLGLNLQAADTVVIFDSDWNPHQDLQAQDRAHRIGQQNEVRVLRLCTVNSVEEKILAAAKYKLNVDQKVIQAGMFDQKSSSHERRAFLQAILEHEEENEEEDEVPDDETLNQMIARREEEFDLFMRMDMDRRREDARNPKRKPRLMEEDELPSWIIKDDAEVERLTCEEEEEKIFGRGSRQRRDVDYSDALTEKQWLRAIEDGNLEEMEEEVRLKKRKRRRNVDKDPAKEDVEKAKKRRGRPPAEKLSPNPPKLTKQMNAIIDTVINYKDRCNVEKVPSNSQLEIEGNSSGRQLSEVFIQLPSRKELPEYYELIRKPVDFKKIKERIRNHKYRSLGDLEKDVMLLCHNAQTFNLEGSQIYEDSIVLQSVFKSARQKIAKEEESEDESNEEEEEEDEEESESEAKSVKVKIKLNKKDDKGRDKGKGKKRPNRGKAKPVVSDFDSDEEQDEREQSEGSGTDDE

[7] = molecular target: T4, von Hippel-Lindau disease tumor suppressor/SWI/SNF-related matrix-associated actin-dependent regulator of chromatin subfamily A member 4 (Homo sapiens, UniProt P51532+P40337); assay: PROTAC activity at VHL1/SMARCA4 in human genetically modified Hela cells assessed as degradation measured after 24 hrs incubation by Nano-Glo HiBiT Lytic Detection Assay; format: cell-based
[8] = molecular target: T4, von Hippel-Lindau disease tumor suppressor/SWI/SNF-related matrix-associated actin-dependent regulator of chromatin subfamily A member 4; assay: PROTAC activity at VHL1/SMARCA4 in human genetically modified Hela cells assessed as maximal degradation measured after 24 hrs incubation by Nano-Glo HiBiT Lytic Detection Assay relative to control; format: cell-based
Target sequence in this assay (P40337 whole entry, looked up): as the sequence (P40337 whole entry, looked up) above
Target sequence in this assay (P51532 whole entry, looked up): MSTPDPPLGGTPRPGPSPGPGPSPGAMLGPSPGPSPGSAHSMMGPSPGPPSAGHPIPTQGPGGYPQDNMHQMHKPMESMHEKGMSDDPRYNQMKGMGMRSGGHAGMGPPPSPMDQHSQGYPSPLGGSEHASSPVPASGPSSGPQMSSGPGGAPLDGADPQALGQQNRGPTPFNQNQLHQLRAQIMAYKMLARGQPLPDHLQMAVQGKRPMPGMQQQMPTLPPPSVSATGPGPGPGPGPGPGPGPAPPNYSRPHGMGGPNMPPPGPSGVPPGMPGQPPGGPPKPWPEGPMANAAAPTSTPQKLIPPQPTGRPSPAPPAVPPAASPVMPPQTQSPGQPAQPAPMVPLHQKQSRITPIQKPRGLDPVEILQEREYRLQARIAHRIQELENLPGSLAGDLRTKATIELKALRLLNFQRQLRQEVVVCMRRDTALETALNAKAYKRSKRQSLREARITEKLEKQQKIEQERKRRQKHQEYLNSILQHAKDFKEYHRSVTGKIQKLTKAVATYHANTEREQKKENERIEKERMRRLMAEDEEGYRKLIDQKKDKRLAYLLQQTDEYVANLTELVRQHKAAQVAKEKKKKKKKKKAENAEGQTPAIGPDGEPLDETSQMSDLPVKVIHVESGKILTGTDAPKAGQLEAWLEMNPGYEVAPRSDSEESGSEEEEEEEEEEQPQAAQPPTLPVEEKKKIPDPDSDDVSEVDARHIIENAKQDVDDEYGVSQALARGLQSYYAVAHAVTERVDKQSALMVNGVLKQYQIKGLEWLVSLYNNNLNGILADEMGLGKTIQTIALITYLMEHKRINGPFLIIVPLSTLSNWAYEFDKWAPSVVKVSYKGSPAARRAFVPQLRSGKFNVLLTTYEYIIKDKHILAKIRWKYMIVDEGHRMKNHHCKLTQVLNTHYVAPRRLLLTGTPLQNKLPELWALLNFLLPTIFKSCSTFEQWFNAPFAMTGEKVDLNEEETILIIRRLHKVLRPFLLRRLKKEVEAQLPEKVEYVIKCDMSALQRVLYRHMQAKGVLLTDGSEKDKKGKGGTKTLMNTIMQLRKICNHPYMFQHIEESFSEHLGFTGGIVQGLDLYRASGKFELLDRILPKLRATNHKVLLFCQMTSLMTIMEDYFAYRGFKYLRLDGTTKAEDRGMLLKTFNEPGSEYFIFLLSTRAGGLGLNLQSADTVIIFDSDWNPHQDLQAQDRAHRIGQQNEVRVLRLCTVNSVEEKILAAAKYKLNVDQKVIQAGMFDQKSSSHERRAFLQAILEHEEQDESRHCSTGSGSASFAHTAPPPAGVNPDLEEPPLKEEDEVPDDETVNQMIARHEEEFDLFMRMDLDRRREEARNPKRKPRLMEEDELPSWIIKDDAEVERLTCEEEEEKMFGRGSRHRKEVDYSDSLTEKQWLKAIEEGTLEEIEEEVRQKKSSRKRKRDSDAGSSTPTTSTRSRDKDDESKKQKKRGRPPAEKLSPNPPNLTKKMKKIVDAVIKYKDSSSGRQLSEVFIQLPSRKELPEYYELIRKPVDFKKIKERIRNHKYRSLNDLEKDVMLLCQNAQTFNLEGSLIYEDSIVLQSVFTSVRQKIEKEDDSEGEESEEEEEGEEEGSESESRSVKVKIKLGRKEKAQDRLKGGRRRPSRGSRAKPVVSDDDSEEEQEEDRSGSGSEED

HeLa = assay: Selectivity ratio, ratio of DC50 for VHL1/SMARCA4 in human genetically modified Hela cells to VHL1/SMARCA2 in human genetically modified Hela cells; format: cell-based
[9] = molecular target: T3, von Hippel-Lindau disease tumor suppressor/SWI/SNF-related matrix-associated actin-dependent regulator of chromatin subfamily A member 2; assay: PROTAC activity at VHL1/SMARCA2 in human genetically modified Hela cells assessed as degradation measured after 8 hrs incubation by Nano-Glo HiBiT Lytic Detection Assay; format: cell-based
[10] = molecular target: T3, von Hippel-Lindau disease tumor suppressor/SWI/SNF-related matrix-associated actin-dependent regulator of chromatin subfamily A member 2; assay: PROTAC activity at VHL1/SMARCA2 in human genetically modified Hela cells assessed as degradation measured after 4 hrs incubation by Nano-Glo HiBiT Lytic Detection Assay; format: cell-based
[11] = molecular target: T3, von Hippel-Lindau disease tumor suppressor/SWI/SNF-related matrix-associated actin-dependent regulator of chromatin subfamily A member 2; assay: PROTAC activity at VHL1/SMARCA2 in human genetically modified Hela cells assessed as degradation measured after 48 hrs incubation by Nano-Glo HiBiT Lytic Detection Assay; format: cell-based
[12] = molecular target: T3, von Hippel-Lindau disease tumor suppressor/SWI/SNF-related matrix-associated actin-dependent regulator of chromatin subfamily A member 2; assay: PROTAC activity at VHL1/SMARCA2 in human genetically modified Hela cells assessed as maximal degradation measured after 4 hrs incubation by Nano-Glo HiBiT Lytic Detection Assay relative to control; format: cell-based
Target sequence in this assay (P40337 whole entry, looked up): as the sequence (P40337 whole entry, looked up) above
Target sequence in this assay (P51531 whole entry, looked up): as the sequence (P51531 whole entry, looked up) above

[13] = molecular target: T3, von Hippel-Lindau disease tumor suppressor/SWI/SNF-related matrix-associated actin-dependent regulator of chromatin subfamily A member 2; assay: PROTAC activity at VHL1/SMARCA2 in human genetically modified Hela cells assessed as maximal degradation measured after 8 hrs incubation by Nano-Glo HiBiT Lytic Detection Assay relative to control; format: cell-based
Target sequence in this assay (P40337 whole entry, looked up): as the sequence (P40337 whole entry, looked up) above
Target sequence in this assay (P51531 whole entry, looked up): as the sequence (P51531 whole entry, looked up) above

[14] = molecular target: T3, von Hippel-Lindau disease tumor suppressor/SWI/SNF-related matrix-associated actin-dependent regulator of chromatin subfamily A member 2; assay: PROTAC activity at VHL1/SMARCA2 in human genetically modified Hela cells assessed as maximal degradation measured after 48 hrs incubation by Nano-Glo HiBiT Lytic Detection Assay relative to control; format: cell-based
Target sequence in this assay (P40337 whole entry, looked up): as the sequence (P40337 whole entry, looked up) above
Target sequence in this assay (P51531 whole entry, looked up): as the sequence (P51531 whole entry, looked up) above

[15] = molecular target: T4, von Hippel-Lindau disease tumor suppressor/SWI/SNF-related matrix-associated actin-dependent regulator of chromatin subfamily A member 4; assay: PROTAC activity at VHL1/SMARCA4 in human genetically modified Hela cells assessed as degradation measured after 4 hrs incubation by Nano-Glo HiBiT Lytic Detection Assay; format: cell-based
[16] = molecular target: T4, von Hippel-Lindau disease tumor suppressor/SWI/SNF-related matrix-associated actin-dependent regulator of chromatin subfamily A member 4; assay: PROTAC activity at VHL1/SMARCA4 in human genetically modified Hela cells assessed as degradation measured after 8 hrs incubation by Nano-Glo HiBiT Lytic Detection Assay; format: cell-based
[17] = molecular target: T4, von Hippel-Lindau disease tumor suppressor/SWI/SNF-related matrix-associated actin-dependent regulator of chromatin subfamily A member 4; assay: PROTAC activity at VHL1/SMARCA4 in human genetically modified Hela cells assessed as degradation measured after 48 hrs incubation by Nano-Glo HiBiT Lytic Detection Assay; format: cell-based
[18] = molecular target: T4, von Hippel-Lindau disease tumor suppressor/SWI/SNF-related matrix-associated actin-dependent regulator of chromatin subfamily A member 4; assay: PROTAC activity at VHL1/SMARCA4 in human genetically modified Hela cells assessed as maximal degradation measured after 4 hrs incubation by Nano-Glo HiBiT Lytic Detection Assay relative to control; format: cell-based
Target sequence in this assay (P40337 whole entry, looked up): as the sequence (P40337 whole entry, looked up) above
Target sequence in this assay (P51532 whole entry, looked up): as the sequence (P51532 whole entry, looked up) above

[19] = molecular target: T4, von Hippel-Lindau disease tumor suppressor/SWI/SNF-related matrix-associated actin-dependent regulator of chromatin subfamily A member 4; assay: PROTAC activity at VHL1/SMARCA4 in human genetically modified Hela cells assessed as maximal degradation measured after 8 hrs incubation by Nano-Glo HiBiT Lytic Detection Assay relative to control; format: cell-based
Target sequence in this assay (P40337 whole entry, looked up): as the sequence (P40337 whole entry, looked up) above
Target sequence in this assay (P51532 whole entry, looked up): as the sequence (P51532 whole entry, looked up) above

[20] = molecular target: T4, von Hippel-Lindau disease tumor suppressor/SWI/SNF-related matrix-associated actin-dependent regulator of chromatin subfamily A member 4; assay: PROTAC activity at VHL1/SMARCA4 in human genetically modified Hela cells assessed as maximal degradation measured after 48 hrs incubation by Nano-Glo HiBiT Lytic Detection Assay relative to control; format: cell-based
Target sequence in this assay (P40337 whole entry, looked up): as the sequence (P40337 whole entry, looked up) above
Target sequence in this assay (P51532 whole entry, looked up): as the sequence (P51532 whole entry, looked up) above

[21] = molecular target: T3, von Hippel-Lindau disease tumor suppressor/SWI/SNF-related matrix-associated actin-dependent regulator of chromatin subfamily A member 2; assay: PROTAC activity at VHL1/SMARCA2 in human NCI-H1792 cells assessed as degradation measured after 24 hrs incubation by Western blot analysis; format: cell-based
[22] = molecular target: T3, von Hippel-Lindau disease tumor suppressor/SWI/SNF-related matrix-associated actin-dependent regulator of chromatin subfamily A member 2; assay: PROTAC activity at VHL1/SMARCA2 in human NCI-H1792 cells assessed as maximal degradation measured after 24 hrs incubation by Western blot analysis relative to control; format: cell-based
Target sequence in this assay (P40337 whole entry, looked up): as the sequence (P40337 whole entry, looked up) above
Target sequence in this assay (P51531 whole entry, looked up): as the sequence (P51531 whole entry, looked up) above

[23] = molecular target: T4, von Hippel-Lindau disease tumor suppressor/SWI/SNF-related matrix-associated actin-dependent regulator of chromatin subfamily A member 4; assay: PROTAC activity at VHL1/SMARCA4 in human NCI-H1792 cells assessed as degradation measured after 24 hrs incubation by Western blot analysis; format: cell-based
[24] = molecular target: T4, von Hippel-Lindau disease tumor suppressor/SWI/SNF-related matrix-associated actin-dependent regulator of chromatin subfamily A member 4; assay: PROTAC activity at VHL1/SMARCA4 in human NCI-H1792 cells assessed as maximal degradation measured after 24 hrs incubation by Western blot analysis relative to control; format: cell-based
Target sequence in this assay (P40337 whole entry, looked up): as the sequence (P40337 whole entry, looked up) above
Target sequence in this assay (P51532 whole entry, looked up): as the sequence (P51532 whole entry, looked up) above

[25] = molecular target: T4, von Hippel-Lindau disease tumor suppressor/SWI/SNF-related matrix-associated actin-dependent regulator of chromatin subfamily A member 4; assay: PROTAC activity at VHL1/SMARCA4 mutant in human SK-MEL-5 cells assessed as degradation measured after 24 hrs incubation by Western blot analysis; format: cell-based
[26] = system: von Hippel-Lindau disease tumor suppressor/SWI/SNF-related matrix-associated actin-dependent regulator of chromatin subfamily A member 4 (Homo sapiens), P51532+P40337 [UNDEFINED MUTATION]; assay: PROTAC activity at VHL1/SMARCA4 mutant in human SK-MEL-5 cells assessed as maximal degradation measured after 24 hrs incubation by Western blot analysis relative to control; format: cell-based
[27] = molecular target: T4, von Hippel-Lindau disease tumor suppressor/SWI/SNF-related matrix-associated actin-dependent regulator of chromatin subfamily A member 4; assay: PROTAC activity at VHL1/SMARCA4 mutant in human NCI-H838 cells assessed as degradation measured after 24 hrs incubation by Western blot analysis; format: cell-based
[28] = system: von Hippel-Lindau disease tumor suppressor/SWI/SNF-related matrix-associated actin-dependent regulator of chromatin subfamily A member 4 (Homo sapiens), P51532+P40337 [UNDEFINED MUTATION]; assay: PROTAC activity at VHL1/SMARCA4 mutant in human NCI-H838 cells assessed as maximal degradation measured after 24 hrs incubation by Western blot analysis relative to control; format: cell-based
[29] = Anticancer activity against SMARCA4 deficient human NCI-H838 cells assessed as inhibition of cell growth measured after 7 days incubation by WST-8 assay; format: functional; details: NCI-H838, 168 h, time 7 day
NCI-H1792 [30] = assay: Anticancer activity against human NCI-H1792 cells harbouring wild type SMARCA4 assessed as inhibition of cell growth measured after 7 days incubation by WST-8 assay; format: functional; details: NCI-H1792, 168 h, time 7 day
NCI-H1792 [31] = assay: Anticancer activity against human NCI-H1792 cells harbouring wild type SMARCA4 assessed as maximal inhibition of cell growth measured after 7 days incubation by WST-8 assay relative to control; format: functional; details: time 7 day
SK-MEL-28 [32] = assay: Anticancer activity against human SK-MEL-28 cells harbouring wild type SMARCA4 assessed as inhibition of cell growth measured after 7 days incubation by WST-8 assay; format: functional; details: SK-MEL-28, 168 h, time 7 day
SK-MEL-28 [33] = assay: Anticancer activity against human SK-MEL-28 cells harbouring wild type SMARCA4 assessed as maximal inhibition of cell growth measured after 7 days incubation by WST-8 assay relative to control; format: functional; details: time 7 day
[34] = Anticancer activity against SMARCA4 deficient human NCI-H838 cells assessed as maximal inhibition of cell growth measured after 7 days incubation by WST-8 assay relative to control; format: functional; details: time 7 day
SK-MEL-5 [35] = assay: Anticancer activity against SMARCA4 deficient human SK-MEL-5 cells assessed as inhibition of cell growth measured after 7 days incubation by WST-8 assay; format: functional; details: SK-MEL-5, 168 h, time 7 day
SK-MEL-5 [36] = assay: Anticancer activity against SMARCA4 deficient human SK-MEL-5 cells assessed as maximal inhibition of cell growth measured after 7 days incubation by WST-8 assay relative to control; format: functional; details: time 7 day

Cc1ncsc1-c1ccc([C@H](CC[C@H](C)CCN2CCC(c3ccc4c(c3)n(C3CCCC3)c3nc(=O)c5c(Br)cccc5n43)CC2)NC(=O)[C@@H]2C[C@@H](O)CN2C(=O)[C@@H](NC(=O)C2(F)CC2)C(C)(C)C)cc1
DC50 [1]: 0.001 µM
Emax [2]: 81%
DC50 [3]: 0.032 µM
Emax [4]: 67%
DC50 [5]: 0.0023 µM
Emax [6]: 93%
DC50 [7]: 0.033 µM
Emax [8]: 86%
Ratio (HeLa): 12

Cc1ncsc1-c1ccc([C@H](C)NC(=O)[C@@H]2C[C@@H](O)CN2C(=O)[C@@H](NC(=O)[C@H]2CC[C@H](CN3CCC(c4ccc5c(c4)-n4c(nc(=O)c6c(Cl)cccc64)C54CCCCC4)CC3)CC2)C(C)(C)C)cc1
Emax [6]: 89%
DC50 [7]: > 10 µM
Emax [8]: 20%
Ratio (HeLa): > 1250
DC50 [9]: 0.089 µM
DC50 [10]: 0.142 µM
DC50 [11]: 0.044 µM
Emax [12]: 76%
Emax [13]: 85%
Emax [14]: 91%
DC50 [15]: > 1 µM
DC50 [16]: > 1 µM
DC50 [17]: > 1 µM
Emax [18]: < 10%
Emax [19]: < 10%
Emax [20]: < 10%
DC50 [21]: 0.0542 µM
Emax [22]: 87%
DC50 [23]: > 1 µM
Emax [24]: < 30%
DC50 [25]: 0.0811 µM
Emax [26]: 87%
DC50 [27]: 0.0762 µM
Emax [28]: < 89%
GI50 [29]: 0.142 µM
GI50 (NCI-H1792 [30]): > 1 µM
Imax (NCI-H1792 [31]): 0%
GI50 (SK-MEL-28 [32]): > 1 µM
Imax (SK-MEL-28 [33]): 0%
Imax [34]: 79%
GI50 (SK-MEL-5 [35]): > 0.0223 µM
Imax (SK-MEL-5 [36]): 93%
